The subject of this test is liver ischemia-reperfusion injury model. Nature of the test: Liver ischemia-reperfusion injury model. It counts as in vivo, CX3CR1-GFP mice. The conditions noted are these: 100 mg/kg oral once daily, 3 days; 24 hours of reperfusion. As for the experimental part:
A liver ischemia-reperfusion injury model was prepared using CX3CR1-GFP mice to investigate the effect of inhibitors of KRS translocation to the plasma membrane on the monocyte infiltration during ischemic immune responses. Monocytes, macrophages and Kupffer's cells appear green in CX3CR1-GFP mice. Mice were orally administered with vehicle or BC-KI-00053 (100 mg/kg, dissolved in vehicle, once daily) for a total of three days beginning two days before imaging (D-2, D-1, D-0). For vehicle, corn oil:polyethylene glycol 400: Tween 80: methyl cellulose (1%)=20:30:1:49 was used. On day 3 of oral administration (D-0), triad (bile duct, hepatic artery, […]) occlusion was performed using a 6-0 suture as shown in FIG. 8a. Triad occlusion was performed for 30 minutes to induce acute inflammation, and 3 g of Eppendorf tubes were suspended from both ends of the suture. Suture was removed and the ischemic inflammation site was observed immediately after reperfusion (0 hour) and 24 hours later. At this time, blood vessels were labeled with Alexa Flour 555-bound anti-CD31 antibody for repeated imaging (identifiable as red). Two-photon microscope was used as an imaging equipment.

These results are taken from patent US11378572B2, “Therapeutic agent for immune cell migration-caused disease and method for screening same” (ZYMEDI CO., LTD., priority 2017, dated 2022).

Molecules are shown by their SMILES.

Regarding `COc1ccc(CCN(Cc2ccc(C(=O)O)cc2)c2nc3cccc(F)c3s2)cc1` [BC-KI-00053, 4-({(7-fluorobenzo[d]thiazol-2-yl)[2-(4-methoxyphenyl)ethyl]amino}methyl)benzoic acid], the “monocyte/macrophage infiltration into occluded liver area” value is “significantly reduced”.
